Experimental data published in patent publication US10138212B2, “Aminoquinazoline compounds as A2A antagonist” (Merck Sharp & Dohme Corp., priority 2015, dated 2018).

What was measured:
[1] = biological target: human A2a receptor (Homo sapiens (Human), UniProt P29274); experiment: A2a competition binding assay using Scintillation Proximity technology
Experimental: (§1) Binding affinities of compounds of the invention for the human A2a receptor were determined in a competition binding assay using Scintillation Proximity technology. Thus, 1* μg, or preferably 0.25 μg of membranes from HEK293 cells expressing the human A2a receptor were incubated with a compound of the invention at concentrations ranging from 3000 nM to 0.15 nM in a reaction mixture containing also 0.5 nM of a tritiated form of 5-amino-7-[2-phenethyl]-2-(furan-2-yl)-7H-pyrazolo[4,3-e][1,2,4]triazolo[1,5-c]pyrimidine (the tritiated compound) and 25 μg of wheat germ agglutin-coated yttrium silicate SPA beads for one hour at room temperature with agitation. The beads were then allowed to settle to the bottom of the wells for 1 hr, after which the membrane-associated radioactivity was determined by scintillation counting in a TopCount microplate reader. Ki values were determined using the Cheng-Prusoff equation.
HEK293 cells expressing the human, rat, dog or monkey adenosine 2a receptor (Purchased from Perkin-Elmer # RBHA2AM400UA).
The Tritiated compound was prepared in-house by MRL Radiochemistry according to published methods.
Wheat germ agglutinin-coated yttrium silicate SPA beads (GE Healthcare #RPNQ0023). Dilute to 25 mg/ml in assay buffer.
Assay Buffer was prepared in house: Dulbecco's calcium and magnesium free phosphate buffered saline+10 mM MgCl2
Adenosine deaminase from calf intestine, 10 mg/2 ml (Roche #10 102 105 001).
A2a antagonist standard (9-chloro-1-(2-furanyl)-[1,2,4]triazolo1,5-c]quinazolin-5-amine from Tocris Bioscience)
Make eight 1:3 serial dilutions in 100% DMSO from a 3 mM compound stock
Transfer 50 nl of compound into a 384-well OptiPlate (Perkin Elmer).
Typically, final concentrations of compound used in the assay ranged from 3000 nM to 0.152 nM.
Dilute a solution of the Tritiated compound to 1.25 nM in assay buffer. This is a 2.5× solution. The final concentration in the assay is 0.5 nM. Calculate the concentration by counting two 5 μl aliquots.
Use *1 ug or preferrably 0.25 ug of membrane/well. Dilute membranes to 9.7 μg/ml in assay buffer. Treat with 20 ug/ml adenosine deaminase (ADA) for 15 minutes at room temperature to degrade endogenous adenosine.
Use 25 μg/well wheat germ agglutinin-coated yttrium silicate SPA beads.
Mix ADA-treated membranes and SPA beads together for 30 min prior to assay.
To the Perkin-Elmer Optiplate-384 containing the compound titration add 20 μl of 2.5× solution of the Tritiated compound and 30 μl of the membrane-bead mixture. Incubate for one hour at room temperature with agitation.
Include total binding (assay buffer+1% DMSO) and non-specific binding (CGS15943, 1 μM) wells.
Allow the beads to settle for one hour.
A curve fitting program (i.e., Prism, Activity Base, Chemcart) is used to determine the EC50. The Ki value is calculated using the Cheng-Prusoff equation. Ki=EC50/(1+(radioligand concentration/Kd))
Using the foregoing assay method, the Ki results were obtained using the compounds of the invention described in Tables IIIa, IIIb, and IV. Each example compound tested is reported in the following format: Example number: A2a Ki reported in nM. Thus, for example, the compound Ex-1 was determined to have an Ki using the above-described assay and calculations, of 10.0 nM.

[2] = biological target: human A1 receptor (Homo sapiens (Human), UniProt P30542); experiment: A1 competition binding assay using Scintillation Proximity technology; selectivity = A1 binding Ki / A2a binding Ki; settings: A1 binding Ki divided by A2a binding Ki
Experimental: as §1, with “A1” for “A2a”, “5” for “1* μg, or preferably 0.25 μg”, “CHO-K1” for “HEK293”, “0.7” for “0.5”, “8-Cyclopentyl-1,3-dipropylxanthine” for “5-amino-7-[2-phenethyl]-2-(furan-2-yl)-7H-pyrazolo[4,3-e][1,2,4]triazolo[1,5-c]pyrimidine”, “in a similar fashion described with A2a binding.” for “using the Cheng-Prusoff equation.”
• Cells expressing the human, rat, dog or monkey adenosine 1 receptor (Purchased from Perkin-Elmer # ES-010-M400UA • [^3H]DPCPX (purchased from Perkin-Elmer NET-974, 8-cyclopentyl-1,3-dipropylxanthine, [dipropyl-2,3-^3H(N)]. • Wheatgerm agglutinin-coated yttrium silicate SPA beads (Purchased from GE Healthcare #RPNQ0023). Dilute to 25 mg/ml in assay buffer. Store at 4° C. • Assay Buffer—Dulbecco's phosphate buffered saline without calcium and without magnesium+10 mM MgCl2 • Adenosine deaminase from calf intestine, 10 mg/2 ml (Roche #10 102 105 001). • DMSO • DPCPX (A1 antagonist) from Tocris Bioscience Compound Dilution • Dilute compounds to 1 mM in 100% DMSO
Make serial dilutions as necessary (i.e., 1:10, 1:3) in 100% DMSO.
Dilute 1:20 into assay buffer (i.e. 3 ul into 57 ul buffer). This is a 5× solution in 5% DMSO.
• Dilute [^3H]DPCPX to 1.75 nM in assay buffer. This is a 2.5× solution. The final concentration in the assay is 0.7 nM. Calculate the concentration by counting two 5 ul aliquots. Membrane Preparation • Use 5 ug of membrane/well. Dilute membranes to 250 ug/ml in assay buffer. Treat with 20 ug/ml adenosine deaminase (ADA) for 15 minutes at room temperature to degrade endogenous adenosine. Membrane-Bead Mixture • Use 25 ug/well wheatgerm agglutinin-coated yttrium silicate SPA beads • Mix ADA-treated membranes and SPA beads together for 30 min prior to assay. Assay Assembly • Add in order to a Perkin-Elmer Optiplate-384: 10 ul of 5× compound, 20 ul of 2.5× [^3H]DPCPX, 20 ul membrane-bead mixture. Incubate for one hour at room temperature with agitation. • Include total binding (assay buffer+1% DMSO) and non-specific binding (DPCPX, 1 uM) wells. Counting and Calculations

[3] = 0.25 μg of membranes from HEK293 cells expressing the human A2a receptor
[4] = * assay run with 1 μg of membranes versus 0.25 μg, HEK293 cells expressing the human A2a receptor

Chain of human A2a receptor (P29274 whole entry): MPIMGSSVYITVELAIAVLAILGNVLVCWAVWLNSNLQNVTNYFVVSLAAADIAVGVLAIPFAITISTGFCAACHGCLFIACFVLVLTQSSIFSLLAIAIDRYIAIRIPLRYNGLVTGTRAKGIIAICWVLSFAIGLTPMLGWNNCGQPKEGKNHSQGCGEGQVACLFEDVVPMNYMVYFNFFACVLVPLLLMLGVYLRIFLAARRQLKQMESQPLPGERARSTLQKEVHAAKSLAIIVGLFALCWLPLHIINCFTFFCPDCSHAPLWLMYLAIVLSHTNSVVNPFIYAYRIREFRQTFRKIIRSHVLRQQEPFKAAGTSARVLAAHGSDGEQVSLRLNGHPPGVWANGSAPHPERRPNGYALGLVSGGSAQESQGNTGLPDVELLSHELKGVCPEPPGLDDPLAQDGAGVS
Chain of human A1 receptor (P30542 whole entry): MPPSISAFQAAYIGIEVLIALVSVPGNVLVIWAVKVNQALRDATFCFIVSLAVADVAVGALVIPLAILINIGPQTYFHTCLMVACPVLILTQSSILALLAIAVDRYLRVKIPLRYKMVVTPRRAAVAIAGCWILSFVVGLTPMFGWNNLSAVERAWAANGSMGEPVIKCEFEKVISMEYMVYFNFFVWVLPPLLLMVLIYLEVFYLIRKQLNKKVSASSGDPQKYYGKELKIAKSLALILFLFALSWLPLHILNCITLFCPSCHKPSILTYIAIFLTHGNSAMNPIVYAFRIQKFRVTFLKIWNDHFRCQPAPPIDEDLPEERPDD

SMILES	Ki [1, 3] [nM]	A2a selectivity (A2a A1 binding selectivity) [2]	Ki [1, 4] [nM]
COc1cccc2c(C(=O)NC3(c4ccccn4)CC3)nc(N)nc12 [Example 40, 2-amino-8-methoxy-N-[1-(2-pyridyl)cyclopropyl]quinazoline-4-carboxamide]	929	3	
COc1cccc2c(C(=O)NCc3ccccc3-c3cccnc3)nc(N)nc12 [Example 41, 2-amino-8-methoxy-N-[[2-(3-pyridyl)phenyl]methyl]quinazoline-4-carboxamide]		56	9.2
COc1cccc2c(C(=O)N[C@@H]3CCc4ccccc43)nc(N)nc12 [Example 33, 2-amino-N-[(1R)-indan-1-yl]-8-methoxy-quinazoline-4-carboxamide]	5.3	60	
COc1ccc(CNC(=O)c2nc(N)nc3c(OC)cccc23)nc1 [Example 22, 2-amino-8-methoxy-N-[(5-methoxy-2-pyridyl)methyl]quinazoline-4-carboxamide]	7.8	52	
N#Cc1ccc(OCc2cccc(CNC(=O)c3nc(N)nc4c(F)cccc34)n2)cc1 [Example 47, 2-amino-N-[[6-[(4-cyanophenoxy)methyl]-2-pyridyl]methyl]-8-fluoro-quinazoline-4-carboxamide]		36	3.8
Nc1nc(C(=O)NCc2cccc3cccnc23)c2cccc(Cl)c2n1 [Example 91, 2-amino-8-chloro-N-(8-quinolylmethyl)quinazoline-4-carboxamide]	3	70	
COc1cccc2c(C(=O)NCc3cccc(F)n3)nc(N)nc12 [Example 27, 2-amino-N-[(6-fluoro-2-pyridyl)methyl]-8-methoxy-quinazoline-4-carboxamide]	1.5	148	
COc1cccc2c(C(=O)NCc3cccc(COc4cccc(F)c4)n3)nc(N)nc12 [Example 54, 2-amino-N-[[6-[(3-fluorophenxoy)methyl]-2-pyridyl]methyl]-8-methoxy-quinazoline-4-carboxamide]		49	2.1
COc1cccc2c(C(=O)NCc3ncccc3C(F)(F)F)nc(N)nc12 [Example 19, 2-amino-8-methoxy-N-[[3-(trifluoromethyl)-2-pyridyl]methyl]quinazoline-4-carboxamide]	2.6	53	
Cc1ccc(CNC(=O)c2nc(N)nc3c(F)cccc23)nc1 [Example 72, 2-amino-8-fluoro-N-[(5-methyl-2-pyridyl)methyl]quinazoline-4-carboxamide]	6.1	30	
COc1cccc2c(C(=O)N[C@H]3CCCc4cccnc43)nc(N)nc12 [Example 35, 2-amino-8-methoxy-N-[(8S)-5,6,7,8-tetrahydroquinolin-8-yl]quinazoline-4-carboxamide]	180	48	
COc1cccnc1CNC(=O)c1nc(N)nc2c(OC)cccc12 [Example 23, 2-amino-8-methoxy-N-[(3-methoxy-2-pyridyl)methyl]quinazoline-4-carboxamide]	3	110	
COc1cccc2c(C(=O)NCc3ncccc3C)nc(N)nc12 [Example 24, 2-amino-8-methoxy-N-[(3-methyl-2-pyridyl)methyl]quinazoline-4-carboxamide]	0.9	180	
COc1cccc2c(C(=O)NCc3cccc(C4CC4)n3)nc(N)nc12 [Example 7, 2-amino-N-[(6-cyclopropyl-2-pyridyl)methyl]-8-methoxy-quinazoline-4-carboxamide]	0.3	169	
COc1cccc2c(C(=O)NCc3ccc4ccccc4n3)nc(N)nc12 [Example 30, 2-amino-8-methoxy-N-(2-quinolylmethyl)quinazoline-4-carboxamide]	1.5	138	

Next, values leading:

Ki [1, 3] [nM]	A2a selectivity (A2a A1 binding selectivity) [2]	Ki [1, 4] [nM]	SMILES
	77	2.1	[2H]C([2H])(NC(=O)c1nc(N)nc2c(OC)cccc12)c1cccc(C([2H])([2H])c2cncc(-c3ncco3)c2)n1 [Example 108, 2-amino-N-[dideuterio-[6-[dideuterio-(5-oxazol-2-yl-3-pyridyl)methyl]-2-pyridyl]methyl]-8-methoxy-quinazoline-4-carboxamide]
	12	0.7	Nc1nc(C(=O)NCc2cccc3cccnc23)c2cccc(Br)c2n1 [Example 96, 2-amino-8-bromo-N-(8-quinolylmethyl)quinazoline-4-carboxamide]
86	55		CS(=O)(=O)c1cccc2c(C(=O)NCc3cccc4cccnc34)nc(N)nc12 [Example 95, 2-amino-8-methylsulfonyl-N-(8-quinolylmethyl)quinazoline-4-carboxamide]
	120	2.3	[2H]C([2H])(NC(=O)c1nc(N)nc2c(OC)cccc12)c1cccc(C([2H])([2H])c2ccc(C(C)(C)OCOC)nc2)n1 [Example 109, 2-amino-N-[dideuterio-[6-[dideuterio-[6-[1-(methoxymethoxy)-1-methyl-ethyl]-3-pyridyl]methyl]-2-pyridyl]methyl]-8-methoxy-quinazoline-4-carboxamide]
1.7	133		Cc1ccc(F)c(CNC(=O)c2nc(N)nc3c(-c4ncco4)cccc23)n1 [Example 98, 2-amino-N-[(3-fluoro-6-methyl-2-pyridyl)methyl]-8-oxazol-2-yl-quinazoline-4-carboxamide]
	93	5	COc1cccc2c(C(=O)NCc3cccc(Cc4cccnc4)n3)nc(N)nc12 [Example 104, 2-amino-8-methoxy-N-((6-(pyridin-3-ylmethyl)pyridin-2-yl)methyl)quinazoline-4-carboxamide]
